SMILES strings stand for the structures.

Data set [1] in a line: Temperature sensitivity of carboxylic acid extraction by 0.5 mol/kg Alamine 304 + 10% octanol in kerosene. The format is physicochemical. The conditions noted are these: distribution coefficient at 30°C divided by that at 75°C; for TS in Equilibrium with Aqueous Solutions of (mol/kg) 0.05: aqueous phase 0.05 mol/kg; for TS in Equilibrium with Aqueous Solutions of (mol/kg) 0.2: aqueous phase 0.2 mol/kg; for TS in Equilibrium with Aqueous Solutions of (mol/kg) 0.3: aqueous phase 0.3 mol/kg; for TS in Equilibrium with Aqueous Solutions of (mol/kg) 0.475: aqueous phase 0.475 mol/kg. An excerpt:
Referring now to said patents and the teachings thereof, one finds that the process taught therein utilizes the effect of temperature on phosphoric and carboxylic acid extraction by amine-based extractants. The term "amine" as used herein means water-immiscible amine, with a total of at least 20 carbon atoms on its chains. Said patents teach that such amine-based extractants (ABE) lose much of their extraction efficiency upon temperature elevation. This loss of efficiency is referred to as "temperature sensitivity of extraction" (TS). The magnitude of this TS can be represented by the ratio of the distribution coefficient at the lower temperature (DT1) and the distribution coefficient at the higher temperature (DT2). High TS provides for the purification and the concentration of carboxylic acids through altering the temperature between extraction and back-extraction. The acid is extracted from the fermentation liquor by an ABE at low temperature, and is then back-extracted with water at an elevated temperature. The aqueous solution obtained from that back-extraction is, in many cases, more concentrated than in the fermentation liquor. This process is referred to herein as the "temperature swing process" (TSP). The attraction of such processes is in the fact that the sole energy consumption is that of sensible heat, which saves a lot of the latent heat of water evaporation in the final concentration.

The nature of data set [2]: Distribution curves, extractant 1.2 mol/kg tricaprylyl amine (50%) and 3.8 mol/kg octanol (50%) (Fig. 3). It is filed as physicochemical. The conditions noted are these: extraction at 25°C and back-extraction at 96°C. As to the method:
Fig. 3 illustrates distribution curves for extraction by an extractant composed of 1.2 mol/kg tricaprylyl amine (50%) and 3.8 mol/kg octanol (50%). The loading of the extractant in contact with 0.2 mol/kg ascorbic acid containing aqueous solution is about 0.5 mol/kg. […] The effect is even more impressive at the low concentrations end. […] A concentration factor of about 4 can be reached on extraction at 25°C and back-extraction at 96°C.

For data set [3] the following is noted: cited from earlier work.
Data set [4] can be described thus: Extraction at 25°C and stripping at about 96°C with 50% w/w tridodecylamine and 50% w/w 1-n-octanol, recycled extractant. The format is physicochemical. The following applies: practically complete extraction with recycled extractant; feed 0.22 mol/kg. As to the method:
[…]. […] […]. The extractant was composed of 50% w/w tridodecylamine and 50% w/w of 1-n-octanol. The extraction was conducted at 25°C and the stripping at about 96°C.
Extraction as in Example 12 (100 g aqueous, 40 g extractant, 3 countercurrent stages) results in practically complete extraction of the acid to form an extract (loaded extractant) comprising 5% w/w lactic acid. […]. About two-thirds of the extracted lactic acid stays in the organic phase. Re-use of this organic phase in extraction from 2% lactic acid solutions results in low yields; not more than 20% of the acid is extracted. Increasing the number of stages in extraction has only a small effect. Near complete stripping and thus high yield in re-use of the organic phase requires about 150 g water per 40 g of extract, and 6-7 countercurrent stages. […]
Stripping the extract at 96°C with 35 g water results in an aqueous solution comprising 0.6 mol/kg ascorbic acid and an organic phase practically free of ascorbic acid. Re-use of this organic phase in extraction provides an extraction yield of at least 95% at the above conditions.

Data set [5] is described as follows: Distribution curves, extractant 1.2 mol/kg tricaprylyl amine and 2.4 mol/kg octanol in kerosene (Fig. 2). The conditions noted are these: temperature gradient of 25-80°C. The format is physicochemical.

With `O=C(O)CC(O)(CC(=O)O)C(=O)O` [Citric, citric acid], in data set [1], the “TS in Equilibrium with Aqueous Solutions of (mol/kg) 0.05” value (“TS in Equilibrium … (mol/kg) 0.05” below) came to 6.0, the “TS in Equilibrium with Aqueous Solutions of (mol/kg) 0.2” value (from here on “TS in Equilibrium … (mol/kg) 0.2”) came to 3.1, the “TS in Equilibrium with Aqueous Solutions of (mol/kg) 0.3” value (from here on “TS in Equilibrium … (mol/kg) 0.3”) worked out at 2.6 and the “TS in Equilibrium with Aqueous Solutions of (mol/kg) 0.475” value (from here on “TS in Equilibrium … (mol/kg) 0.475”) is 2.2. Moreover, the temperature sensitivity entry in data set [2] was “Practically no temperature sensitivity”.
Consider `O=C(O)[C@H](O)[C@@H](O)[C@H](O)[C@H](O)CO` [Gluconic], for which, in data set [1], the “TS in Equilibrium … (mol/kg) 0.05” value was 2.1, the “TS in Equilibrium … (mol/kg) 0.2” value amounted to 2.3, the “TS in Equilibrium … (mol/kg) 0.3” value was determined as 2.4 and the “TS in Equilibrium … (mol/kg) 0.475” value is given as 2.6.
One may read the pKa as the negative logarithm of the acid dissociation constant. On to `O=C(O)CCCC(=O)O` [Glutaric], for which, in data set [1], the “TS in Equilibrium … (mol/kg) 0.05” value amounted to 3.9, the “TS in Equilibrium … (mol/kg) 0.2” value came out at 4.5, the “TS in Equilibrium … (mol/kg) 0.3” value is 4.5 and the “TS in Equilibrium … (mol/kg) 0.475” value amounted to 4.4. Further, in data set [3], the pKa is listed as 4.4.
Turning to `CC(C)C(=O)O` [Isobutyric], in data set [1], the “TS in Equilibrium … (mol/kg) 0.05” value is 1.9, the “TS in Equilibrium … (mol/kg) 0.2” value came to 1.5, the “TS in Equilibrium … (mol/kg) 0.3” value is on record as 1.4 and the “TS in Equilibrium … (mol/kg) 0.475” value is recorded as 1.1.
For the molecule `CC(O)C(=O)O` (stereo not drawn) [Lactic, lactic acid], in data set [1], the “TS in Equilibrium … (mol/kg) 0.05” value is reported as 2.5, the “TS in Equilibrium … (mol/kg) 0.2” value amounted to 2.4, the “TS in Equilibrium … (mol/kg) 0.3” value was determined as 2.4 and the “TS in Equilibrium … (mol/kg) 0.475” value is reported as 2.2. The “product diluted compared with the feed” value in data set [4] was 4 times.
Consider `O=C(O)/C=C\C(=O)O` [Maleic], for which, in data set [1], the “TS in Equilibrium … (mol/kg) 0.05” value stood at 1.1, the “TS in Equilibrium … (mol/kg) 0.2” value is 1.0, the “TS in Equilibrium … (mol/kg) 0.3” value is on record as 1.0 and the “TS in Equilibrium … (mol/kg) 0.475” value was 1.0.
Turning to `O=C(O)CC(O)C(=O)O` (stereo not drawn) [Malic], in data set [1], the “TS in Equilibrium … (mol/kg) 0.05” value is recorded as 4.0, the “TS in Equilibrium … (mol/kg) 0.2” value was 4.3, the “TS in Equilibrium … (mol/kg) 0.3” value worked out at 4.0 and the “TS in Equilibrium … (mol/kg) 0.475” value was determined as 4.0. The pKa in data set [3] is 3.22.
As for `O=C(O)CC(=O)O` [Malonic], in data set [1], the “TS in Equilibrium … (mol/kg) 0.05” value was 3.6, the “TS in Equilibrium … (mol/kg) 0.2” value was 1.5, the “TS in Equilibrium … (mol/kg) 0.3” value stood at 1.3 and the “TS in Equilibrium … (mol/kg) 0.475” value stood at 1.1.
With `O=C(O)CCC(=O)O` [Succinic, succinic acid], the uphill concentration factor result in data set [5] is listed as “about 2”. Besides, in data set [1], the “TS in Equilibrium … (mol/kg) 0.05” value came out at 4.3, the “TS in Equilibrium … (mol/kg) 0.2” value was 4.0, the “TS in Equilibrium … (mol/kg) 0.3” value is on record as 4.0 and the “TS in Equilibrium … (mol/kg) 0.475” value turned out to be 4.1.
Take `O=C(O)C(O)C(O)C(=O)O` (stereo not drawn) [Tartaric]: in data set [1], the “TS in Equilibrium … (mol/kg) 0.05” value was determined as 3.4, the “TS in Equilibrium … (mol/kg) 0.2” value was 3.2, the “TS in Equilibrium … (mol/kg) 0.3” value was 2.7 and the “TS in Equilibrium … (mol/kg) 0.475” value stood at 2.4.

The values are drawn from patent publication EP0828725B1, “PROCESS FOR THE RECOVERY OF ASCORBIC ACID” (YISSUM RESEARCH DEVELOPMENT COMPANY OF THE HEBREW …, priority 1995, dated 1996).
